Data: patent US6482410B1, “Cytotactin derivatives that stimulate attachment and neurite outgrowth, and methods of making same” (The Scripps Research Institute, priority 1994, dated 2002)

What was measured:
[1] = target: integrin receptor mediating RGD-dependent, not β1 integrin-mediated attachment of chicken SL29 fibroblasts and DRG cells; assay: cell-based or functional assay
[2] = target: β1 integrin on chicken SL29 fibroblasts and chick dorsal root ganglion neurons (chicken) (UniProt P07228); assay: cell-based or functional assay
[3] = tested on: dorsal root ganglia (DRG) neurons; assay: Two-dimensional neurite outgrowth assay, DRG, 15 hours; format: cell-based, chicken; conditions: 15 hours
Protocol: (§1) Dorsal root ganglia (DRG) cells or forebrain neurons were prepared for the cell attachment assays as follows. DRG from day 6 chicken embryos or forebrains from day 7 chicken embryos were dissected into HBSS. The tissue was pelleted by centrifugation and resuspended in CMF-HBSS and incubated at 37° C. for 10 minutes. The tissue was pelleted again and resuspended in CMF-HBSS containing 0.08% trypsin and allowed to trypsinize for 20 minutes at 37° C. An equal volume of DMEM/F12, 10% FCS, 20 ng/ml nerve growth factor (NGF) (for DRG cells only), 10 μg/ml gentamycin (10% medium) was added, and the tissue was pelleted and resuspended in 2 ml of the 10% medium. The cells were triturated with a fire-polished Pasteur pipette for 15 strokes, and the cells were washed and resuspended in 10 ml of 10% medium. DRG cells were plated in a 10 cm tissue culture dish and incubated for 1 hour at 37° C. in 5% CO2, to allow for attachment of contaminating fibroblasts.
(§2) After replating, the cells were harvested, pelleted and washed three times in DMEM/F12, 1% fetal calf serum (FCS), 20 ng/ml NGF (for DRG cells only), 10 μg/ml gentamycin (1% medium), and the number of cells determined using a hemocytometer. The DRG were resuspended to a density of 6×10^5 cells/ml in attachment buffer. The neurons were resuspended to a density of 2×10^4 cells/ml in 1% medium and added to substrates and placed at 37° C., 5% CO2 for 15 hours.
(§3) After the growth period, the dishes were gently rinsed with PBS to remove unbound cells, fixed with 1% glutaraldehyde, and viewed by phase contrast microscopy. Ten to forty cells were analyzed for each substrate. Cells were judged as neurite-bearing if the length of the processes was greater than one cell diameter. All cells with neurites were photographed with a 20× objective and total neurite length per neurite-bearing cell was derived from the photographic prints. Percentage of neuronal sprouting was calculated from at least six experiments. Neurite length was calculated from at least three experiments.
This extensive neurite outgrowth after 40 hours made quantitation of the percentage of neurite-bearing cells and neurite length difficult. To analyze quantitatively the effect of CT/TN fusion proteins on DRG neurite outgrowth, DRG cells were therefore plated at low density on CT/TN or CT/TN fragments and analyzed after 15 hours in culture for the percentage of cells that sprouted neurites greater than one cell diameter and for the everage neurite length per neuron. These conditions enhanced the number of isolated cells and discouraged the cell-cell interactions and fasciculation that occurred in the long-term cultures.
The proteins used in the neurite outgrowth assays are the same as those used in the cell attachment assays. […] In addition, poly-L-lysine was adsorbed to the solid support. […] Any cells adhering to the solid support were examined for sprouting and neurite length as defined herein.
Proteins used in the neurite outgrowth assays were prepared as described in Example 5.A.2.
Dorsal root ganglia (DRG) from day 6 chicken embryos were prepared as described in Example 5.A.4. For the neurite outgrowth assays, the DRG were resuspended at a density of 2×10^4 cells/ml in 1% medium, added to solid support, and placed at 37° C. in 5% CO2 for 15 hours. After the attachment and growth period, the dishes were gently rinsed with PBS to remove unbound cells, fixed with 1% (v/v) glutaraldehyde, and viewed by phase contrast microscopy. Ten to thirty cells were analyzed for each adsorbed protein spot. Cells were judged as neurite-bearing if the length of the processes were greater than one cell diameter. All cells with neurites were photographed with a 40× objective and the total neurite length per neurite-bearing cell was derived from the prints. The percent of cells that were sprouting and the average neurite length was derived from six and three independent experiments, respectively. […]

[4] = tested on: neurons from chick forebrain; assay: CNS neurite outgrowth, forebrain neurons, 7 hours; format: cell-based; conditions: 7 hour growth period
Protocol: as §1, §2, §3
To investigate whether CNS neurons could also extend neurites on CT/TN and CT/TN fragments, neurons from chick forebrain were plated at low density on CT/TN, CT/TN fragments and polylysine, and analyzed for neurite outgrowth after a 7 hour growth period (a time period found to be optimal for stable neurite outgrowth from these cells). The lengths of neurites on substrates that supported sprouting were essentially the same for the forebrain neurons and were therefore not quantitated further.

[5] = tested on: chicken fibroblast cell line SL29; assay: Cell attachment assay, fibroblasts on protein-coated solid support; format: cell-based; conditions: CT coated at 20 μg/ml, binding fragments at 0.75 μM, non-binding at three times that, 1 hour
Protocol: In the cell attachment assays, a single cell suspension was allowed to settle for a fixed period of time onto a solid support that has been coated with the different CT-derived proteins to be tested for cell attachment (Friedlander, et al., J. Cell Biol. 107: 2329-2340 (1988)). After removing the unbound and loosely bound cells by washing, the attachment and morphology of those cells remaining on the dish were analyzed.
Solid supports, consisting of a circular array of CT or CT:GST fusion proteins bound to a dish, were prepared as follows for the cell attachment assay.
For the initial study, non tissue-culture treated polystyrene plates (Falcon 1008) were spotted with 2 μl of a 0.5 to 1.5 μM solution of CT in PBS for 30 minutes to coat a specific area on the dish with CT. CT was isolated from chicken brain or from fibroblast culture supernatant as described in Crossin, PNAS 88: 11403-11407 (1991) and Hoffman et al., J. Cell Biol. 106: 519-532 (1988). CT was placed in a circular array near the center of the dish and incubated at 37° C. for 30 minutes. After CT had adsorbed to the dish, the central portion of the dish was washed once with 250 μl of 20% (w/v) BSA in PBS. Non-specific binding sites on the dish were then blocked with 250 μl of 20% (w/v) BSA in PBS by incubation for 2 to 3 hours at room temperature.
For the subsequent study with the CT:GST fusion proteins, non tissue-culture treated polystyrene plates (Falcon 1008) were spotted with 2 μl of a 0.5 to 1.5 μM solution of CT:GST fusion protein in PBS as prepared in Example 5.A.2 or GST in PBS for 30 minutes to coat a specific area on the dish with CT:GST fusion protein or GST. The proteins to be tested were placed in a circular array near the center of the dish and incubated at 37° C. for 30 minutes. After the proteins adsorbed to the dish, the central portion of the dish was washed once with 250 μl of 20% (w/v) BSA in PBS. Non-specific binding sites on the dish were then blocked with 250 μl of 20% (w/v) BSA in PBS by incubation for 2 to 3 hours at room temperature.
The chicken fibroblast cell line SL29 (ATCC CRL 1590) was grown to confluence in Dulbecco's Minimum Essential Medium (DMEM; Gibco-BRL, Gaithersburg, Mass.) with 10% (v/v) fetal calf serum (FCS; Gibco-BRL) with penicillin and streptomycin. The cells were passaged the night prior to the assay and seeded at a density of 1:2. Cells were harvested in calcium, magnesium-free Hank's balanced salt solution (CMF-HBSS, Gibco-BRL) with 20 mM Hepes buffer and 5 mM EDTA. Harvested cells were washed in attachment buffer (CMF-HBSS with 10 mM Hepes, 1 mM CaCl2, 1 mM MgCl2, 0.1 mM MnCl2, and 2% (w/v) bovine serum albumin (BSA)) three times. The number of cells was quantitated by counting the cells in a hemocytometer. The cells were resuspended in attachment buffer to a density of 6×10^5 cells/ml.
Chicken fibroblasts, DRG, and solid supports (dishes) coated with CT for use in the cell attachment assays were prepared as described in Examples 5.A.2-4, respectively. The chicken fibroblasts and DRG at a density of 6×10^5 cells/ml were added to the prepared dishes and incubated at 37° C. in 5% CO2 for 1 hour. The dishes were then washed three times in PBS with gentle swirling to remove unattached cells, fixed in 1% glutaraldehyde in PBS, and viewed by phase contrast microscopy. The number of bound cells was determined using a 10× objective with an eyepiece reticle. The number of cells was determined in four fields for each fusion protein dot as the number of cells bound per […]. CT was tested in triplicate. The number of cells bound for CT was expressed as the average of the twelve measurements±standard deviation […].
CT, coated at a concentration of 20 μg/ml, was used as a solid support for SL29 fibroblast attachment. […] Fragments of CT were generated using the pGEX fusion protein system, as described in Example 1. The cell attachment assay was performed essentially as described above for the cell attachment assay to intact CT. […]

[6] = tested on: DRG cells; assay: DRG neurite outgrowth, 40 hour culture, morphology; format: cell-based, chicken; conditions: DRG cells cultured 40 hours
Protocol: In order to assess the effect to the cell binding regions of CT/TN on the outgrowth of neurites from PNS neurons, DRG cells were cultured for 40 hours on popylysine, CTfn3, CTfn6, CTfg, and CTfn3-CTfn6 mixed substrates. The cultures were then fixed and the cell and neurite morphology was analyzed by phase contrast microscopy. The cells were plated on plastic substrates coated with the same concentrations of CTITN and fusion proteins used in the attachment assay.

UniProt P07228, sequence (P07228 25-803, form in doubt): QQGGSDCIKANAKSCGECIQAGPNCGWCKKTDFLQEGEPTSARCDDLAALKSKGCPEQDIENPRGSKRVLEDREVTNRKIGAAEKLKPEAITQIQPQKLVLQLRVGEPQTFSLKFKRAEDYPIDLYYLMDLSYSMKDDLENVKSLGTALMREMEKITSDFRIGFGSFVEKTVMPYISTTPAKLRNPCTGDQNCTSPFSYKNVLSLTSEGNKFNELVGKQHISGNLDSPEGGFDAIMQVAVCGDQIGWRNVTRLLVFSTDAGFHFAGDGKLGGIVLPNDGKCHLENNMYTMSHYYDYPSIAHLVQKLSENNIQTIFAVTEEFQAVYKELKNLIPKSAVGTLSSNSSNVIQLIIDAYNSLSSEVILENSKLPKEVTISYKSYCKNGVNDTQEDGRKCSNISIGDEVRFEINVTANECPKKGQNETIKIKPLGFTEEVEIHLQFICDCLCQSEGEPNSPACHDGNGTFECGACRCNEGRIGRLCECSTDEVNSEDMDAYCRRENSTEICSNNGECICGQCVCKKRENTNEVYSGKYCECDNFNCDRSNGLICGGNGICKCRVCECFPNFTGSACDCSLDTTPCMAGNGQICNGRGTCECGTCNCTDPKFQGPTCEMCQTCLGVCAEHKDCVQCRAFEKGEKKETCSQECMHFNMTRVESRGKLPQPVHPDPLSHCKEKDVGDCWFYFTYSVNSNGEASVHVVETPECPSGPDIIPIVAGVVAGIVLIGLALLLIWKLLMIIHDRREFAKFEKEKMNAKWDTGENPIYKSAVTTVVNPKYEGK

For “intact cytotactin (CT) isolated from chicken brain or from fibroblast culture supernatant (from UniProt P10039 34-1808) (ligand)”, the inhibition of SL29 fibroblast attachment to intact CT/TN by GRGDTP (1 mg/ml) [1] was 33%, the inhibition of cell attachment to intact CT by soluble GRGDSP (1 mg/ml) [1] was 73% and the inhibition of cell attachment to intact CT by soluble GRGDTP (1 mg/ml) [1] was 70%.

Work on “CTfg CT:GST fusion protein (fibrinogen domain of chicken cytotactin fused to GST) (from UniProt P10039 1568-1808)” yielded a decrease in DRG cell attachment to CTfg after preincubation with JG22 [2] of 19%.

Work on “CTfn5-6 fusion protein spanning the fifth and sixth FN type III repeats of chicken cytotactin (from UniProt P08515 1-218)” yielded an inhibition of SL29 fibroblast binding to CTfn5-6 by mAb JG22 [2] of 77%.

With “CT: intact cytotactin isolated from chicken brain or fibroblast culture supernatant” the “percentage of DRG cells that sprouted neurites” value ([3]; DRG) was “About 50%”, the “percentage of DRG cells that sprouted neurites” value ([3]; DRG, listed as CT/TN) was 30% and the “% Sprouting” value ([3]; Table 4, DRG, neurites greater than one cell diameter) was 30 ± 3 %. For the same molecule, the “Neurite Length” value ([3]; Table 4, DRG, per neurite-bearing cell) was 332 ± 177 microns, the “Percent Sprouting” value ([3]; Table 5, DRG, six experiments) was 30 ± 3 and the “Neurite Length (in microns)” value ([3]; Table 5, DRG, three experiments) was 332 ± 177 microns. For the same molecule, the “forebrain cell attachment” value [4] was “low level of attachment”, the “forebrain neuron sprouting versus polylysine” value [4] was “did not support sprouting of neurites” and the “% Sprouting” value ([4]; Table 4, FB (forebrain) neurons) was 0%. The “SL29 fibroblast attachment to coated substrate (words)” value [5] was “readily attached” and the “SL29 fibroblast attachment to coated substrate (words)” value ([5]; listed as CT/TN) was “bound well”.

B1: CTfn3-6: single construct containing fibronectin type III repeats III and VI, SEQ ID NO 29 (protein, listed as Gallus gallus)
chain: LDAPSQIEAKDVTDTTALITWSKPLAEIEGIELTYGPKDVPGDRTTIDLSEDENQYSIGNLRPHTEYEYEVTLISRRGDMESDPAKEVFVTVVGSPKGISFSDITENSARVSWTPPRSRVDSYRVSYVPITGGTPNVVTVDGSKTRTKLVKLVPGVDYNVNIISVKGFEESE
With B1 the “neurite and cell morphology after 40 hours” value [6] was “much longer and less fasciculated” and the “neurite promoting activity on DRG cells” value ([3]; DRG, low density) was “significant increase both in the percentage of neurite-bearing cells and in neurite elongation”.
